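Results reflect a 48-hour exposure of cells in 96-well plates to compound at five concentrations. GI50: concentration for 50% inhibition of growth.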 Active and inactive are the calls of the source. No stated cut-off is given here; in the data, active = GI50 up to about 1.1 µM and inactive = higher. A value given as a limit tells only on which side of the number the result lay.

Some test systems named below: 786-0; A498; ACHN; DU-145; EKVX; HCT-116; Hs-578T; MOLT-4; NCI-H226; NCI-H23; NCI-H460; NCI-H522; NCI/ADR-RES; OVCAR-4; OVCAR-8; SF-539; SW-620; U-251; UACC-257; UO-31.
Experiment in all cases: inhibition of tumour cell growth, NCI panel, 48 h

As for `COc1ccc(/N=N/c2ccc3oc(=O)c(C(=O)Nc4ccc(OC)cc4)cc3c2)cc1`, the GI50 in the experiment with 786-0 was 14.1 µM (inactive); with A498, 2.77 µM (inactive); in the experiment on ACHN it was 18.2 µM (inactive); with DU-145, 15.6 µM (inactive); in the experiment on EKVX, 28.5 µM (inactive); in the experiment on HCT-116 it was 11.2 µM (inactive). The GI50 was 20.9 µM (inactive) with Hs-578T; 6.15 µM (inactive) in the experiment on MOLT-4; 13.1 µM (inactive) with NCI-H226; 17.4 µM (inactive) with NCI-H23; 20.4 µM (inactive) in the experiment with NCI-H460; 26.5 µM (inactive) with NCI-H522. In addition, the GI50 with NCI/ADR-RES is 16.2 µM (inactive); in the experiment with OVCAR-4 it was 13.4 µM (inactive); with OVCAR-8, 14.3 µM (inactive); with SF-539, 6.95 µM (inactive); in the experiment on SW-620, 18.2 µM (inactive); in the experiment with U-251, 13.4 µM (inactive). Besides, the GI50 in the experiment with UACC-257 was 23.8 µM (inactive); in the experiment with UO-31, 14 µM (inactive).
`CN1C2CCC1CC(CC(=O)NC(c1ccc(F)cc1)c1ccc(F)cc1)C2` (stereo not drawn): the GI50 in the experiment with 786-0 is 64.7 µM (inactive); in the experiment with A498, > 100 µM (inactive); in the experiment on ACHN it was > 100 µM (inactive); in the experiment on DU-145 it was > 100 µM (inactive); in the experiment on EKVX, > 100 µM (inactive); in the experiment on HCT-116, 59.7 µM (inactive). The GI50 in the experiment on Hs-578T was > 100 µM (inactive); in the experiment on MOLT-4, 81.1 µM (inactive); with NCI-H226, > 100 µM (inactive); in the experiment on NCI-H23, > 100 µM (inactive); in the experiment on NCI-H460 it was > 100 µM (inactive); with NCI-H522, > 100 µM (inactive). Further, the GI50 in the experiment on NCI/ADR-RES is > 100 µM (inactive); in the experiment on OVCAR-4, > 100 µM (inactive); with OVCAR-8 it was > 100 µM (inactive); in the experiment with SF-539 it was 70 µM (inactive); in the experiment with SW-620 it was > 100 µM (inactive); in the experiment on U-251, > 100 µM (inactive). In addition, the GI50 was 20 µM (inactive) in the experiment on UACC-257 and 56.1 µM (inactive) in the experiment on UO-31.
Take `COc1cc2cc(C(=O)N3CC(CCl)c4ccc([N+](C)(C)Cc5ccccc5[N+](=O)[O-])cc43)[nH]c2c(OC)c1OC` (stereo not drawn): the GI50 in the experiment on 786-0 is 1.53 µM (inactive); with A498, 0.398 µM (active); in the experiment with ACHN, 0.348 µM (active); in the experiment on DU-145, 1.53 µM (inactive); with EKVX it was 3.78 µM (inactive); in the experiment with HCT-116, 1.66 µM (inactive). For the same compound, the GI50 in the experiment with Hs-578T was 2.4 µM (inactive); with MOLT-4 it was 0.63 µM (active); in the experiment on NCI-H226, 1.48 µM (inactive); in the experiment on NCI-H23, 0.762 µM (active); in the experiment on NCI-H522, 0.198 µM (active); in the experiment on NCI/ADR-RES, 1.76 µM (inactive). Moreover, the GI50 was 2.41 µM (inactive) in the experiment on OVCAR-4; 3.44 µM (inactive) with OVCAR-8; 1.63 µM (inactive) with SF-539; 2.01 µM (inactive) in the experiment with SW-620; 2.18 µM (inactive) with U-251; 1.66 µM (inactive) with UACC-257. Further, in the experiment with UO-31, the GI50 was 1.33 µM (inactive).
As for `COc1c2c(cc3c1C1(O)Cc4ccc5c(c4C[N+]1(C)CC3)OCO5)OCO2` (stereo not drawn), the GI50 in the experiment on 786-0 is > 100 µM (inactive); in the experiment with A498, > 100 µM (inactive); in the experiment on ACHN, > 100 µM (inactive); in the experiment with DU-145 it was > 100 µM (inactive); in the experiment on EKVX it was 87.3 µM (inactive); in the experiment on HCT-116 it was 35.1 µM (inactive). The GI50 with Hs-578T is > 100 µM (inactive); in the experiment on MOLT-4 it was 50.8 µM (inactive); in the experiment with NCI-H226 it was > 100 µM (inactive); in the experiment on NCI-H23 it was > 100 µM (inactive); with NCI-H460 it was 88.1 µM (inactive); with NCI-H522, 72.9 µM (inactive). The GI50 in the experiment with NCI/ADR-RES, with OVCAR-4, with OVCAR-8, in the experiment on SF-539, with SW-620 and in the experiment on U-251 was > 100 µM (inactive) each time. Further, the GI50 with UACC-257 was > 100 µM (inactive).
For the compound `NC(=O)C(=CNC(=S)Nc1cccc(C(F)(F)F)c1)C(N)=O`, the GI50 in the experiment on 786-0, with A498, with ACHN, with DU-145, in the experiment on HCT-116 and in the experiment on Hs-578T was > 100 µM (inactive) throughout. The GI50 in the experiment on MOLT-4, in the experiment on NCI-H226, in the experiment on NCI-H23, in the experiment on NCI-H460, in the experiment on NCI/ADR-RES and in the experiment on OVCAR-4 was > 100 µM (inactive) each time. Moreover, the GI50 in the experiment with OVCAR-8, in the experiment with SF-539, in the experiment on SW-620, in the experiment on U-251, in the experiment on UACC-257 and in the experiment with UO-31 was > 100 µM (inactive) throughout.
On to `NCCSCCc1ccccc1`, for which the GI50 with 786-0, in the experiment on A498, with ACHN, in the experiment with DU-145, in the experiment on EKVX and in the experiment on HCT-116 was > 100 µM (inactive) throughout. Besides, the GI50 in the experiment with Hs-578T was > 100 µM (inactive); with NCI-H226, > 100 µM (inactive); in the experiment with NCI-H23 it was > 100 µM (inactive); with NCI-H460, > 100 µM (inactive); in the experiment with NCI-H522 it was 58.6 µM (inactive); in the experiment with NCI/ADR-RES, > 100 µM (inactive). In addition, the GI50 in the experiment with OVCAR-4, with OVCAR-8, in the experiment with SF-539, with SW-620, in the experiment on U-251 and in the experiment with UACC-257 was > 100 µM (inactive) in each case. For the same compound, the GI50 in the experiment on UO-31 was > 100 µM (inactive).
Turning to `Sc1nnc(C23CC4CC(CC(C4)C2)C3)n1-c1ccc(Cl)cc1`, the GI50 was 14.6 µM (inactive) in the experiment on 786-0; 19.1 µM (inactive) in the experiment with A498; 15.4 µM (inactive) in the experiment on ACHN; 20.1 µM (inactive) in the experiment on DU-145; 7.59 µM (inactive) in the experiment with HCT-116; 22.1 µM (inactive) in the experiment with Hs-578T. Moreover, the GI50 with MOLT-4 is 8.41 µM (inactive); in the experiment with NCI-H226 it was 23.3 µM (inactive); in the experiment on NCI-H23, 27.5 µM (inactive); in the experiment with NCI-H460, 5.69 µM (inactive); with NCI-H522 it was 20.2 µM (inactive); with NCI/ADR-RES, 15.5 µM (inactive). Besides, the GI50 is 16.9 µM (inactive) with OVCAR-4; 15.8 µM (inactive) in the experiment on OVCAR-8; 22.7 µM (inactive) with SF-539; 16.1 µM (inactive) in the experiment on SW-620; 9.18 µM (inactive) in the experiment with U-251; 22.5 µM (inactive) in the experiment with UACC-257. Besides, the GI50 with UO-31 was 13.7 µM (inactive).
Regarding `CCOC(=O)CCCN`, the GI50 in the experiment on 786-0, in the experiment on A498, in the experiment on ACHN, with DU-145, with EKVX and in the experiment on HCT-116 was > 100 µM (inactive) in each case. Further, the GI50 in the experiment with Hs-578T, in the experiment with MOLT-4, in the experiment with NCI-H226, in the experiment with NCI-H23, in the experiment with NCI-H460 and in the experiment with NCI-H522 was > 100 µM (inactive) each time. The GI50 in the experiment with NCI/ADR-RES, with OVCAR-4, with OVCAR-8, with SW-620, in the experiment with U-251 and in the experiment on UACC-257 was > 100 µM (inactive) each time. In the experiment with UO-31, the GI50 was > 100 µM (inactive).
For `NNc1nnc(-c2nnc(NN)o2)o1`, the GI50 in the experiment with 786-0, with A498, with ACHN, in the experiment with DU-145, with EKVX and in the experiment on HCT-116 was > 10 µM (inactive) each time. The GI50 with Hs-578T, in the experiment with MOLT-4, in the experiment on NCI-H226, in the experiment on NCI-H23, in the experiment on NCI-H460 and in the experiment with NCI/ADR-RES was > 10 µM (inactive) throughout. In addition, the GI50 in the experiment on OVCAR-4, in the experiment on OVCAR-8, with SF-539, in the experiment with SW-620, with U-251 and with UACC-257 was > 10 µM (inactive) throughout. In addition, the GI50 in the experiment on UO-31 was > 10 µM (inactive).
Take `Cc1ccc2c(O)cc(-c3ccc4ccccc4c3)nc2n1`: the GI50 in the experiment with 786-0 was 3.94 µM (inactive); with A498, 3.4 µM (inactive); in the experiment with ACHN it was 4.72 µM (inactive); in the experiment with DU-145 it was 15.5 µM (inactive); in the experiment with EKVX, 5.96 µM (inactive); in the experiment on Hs-578T, 3.1 µM (inactive). Further, the GI50 in the experiment with MOLT-4 was 4.45 µM (inactive); in the experiment on NCI-H226, 5.81 µM (inactive); in the experiment on NCI-H23, 4.41 µM (inactive); with NCI-H522, 3.32 µM (inactive); with NCI/ADR-RES, 4.58 µM (inactive); with OVCAR-4 it was 6.25 µM (inactive). Further, the GI50 in the experiment on OVCAR-8 was 5.82 µM (inactive); in the experiment with SF-539, 4.74 µM (inactive); with SW-620 it was 2.8 µM (inactive); with UACC-257 it was 5.58 µM (inactive); in the experiment with UO-31 it was 8 µM (inactive).
For `CCOP(=O)(OCC)/C(C#N)=C/c1coc2cc(C)cc(C)c2c1=O`, the GI50 in the experiment on 786-0, in the experiment on A498, with ACHN, with DU-145, in the experiment on EKVX and with HCT-116 was > 100 µM (inactive) each time. The GI50 in the experiment with Hs-578T, with MOLT-4, in the experiment with NCI-H226, with NCI-H23, with NCI-H460 and in the experiment with NCI-H522 was > 100 µM (inactive) throughout. Further, the GI50 in the experiment on NCI/ADR-RES, in the experiment with OVCAR-4, in the experiment with OVCAR-8, in the experiment with SW-620, in the experiment with U-251 and in the experiment with UACC-257 was > 100 µM (inactive) each time. In the experiment on UO-31, the GI50 is > 100 µM (inactive).

Values taken from ChEMBL document CHEMBL1201862, “PubChem BioAssay data set” (2004).
